Experiments:
[1] = rat; cited from earlier work
[2] = LD50 in rat; details: conversion in brackets
[3] = tested on: DNA; details: literature values; cited from earlier work
[4] = tested on: cell membrane; details: cited from earlier work; for permeation of cell membranes: when complexed with free DNA
[5] = Parallel cytotoxicity assay in uninfected HFF cells; details: human
[6] = tested on: HCMV, strain AD169; test: Plaque reduction assay in HFF cells; type: cell-based; details: for EC50: reduces viral replication by 50%; for EC90: reduces viral replication by 90%
Protocol: (§1) E-377 and DM2.1 strains of HSV-1 as well as the MS strain of HSV-2 were a gift of Jack Hill (Burroughs Wellcome). HCMV strain AD169 and VZV strain Ellen were obtained from the American Type Culture Collection (ATCC, Manassas, Va.).
(§2) Monolayers of HFF cells were prepared in six-well plates and incubated at 37° C. for 2 d to allow the cells to reach confluency. Media was then aspirated from the wells and 0.2 ml of virus was added to each of three wells to yield 20-30 plaques in each well. The virus was allowed to adsorb to the cells for 1 h and the plates were agitated every 15 minutes. Compounds were diluted in assay media consisting of MEM with Earl's salts supplemented with 2% FBS, L-glutamine, penicillin, and gentamycin. Solutions ranging from 300 μM to 0.1 μM were added to duplicate wells and the plates were incubated for various times, depending on the virus used. For HSV-1 and -2, the monolayers were then stained with 1% crystal violet in 20% methanol and the unbound dye removed by washing with dH2O. For all other assays, the cell monolayer was stained with 1% Neutral Red solution for 4 h then the stain was aspirated and the cells were washed with PBS. For all assays, plaques were enumerated using a stereomicroscope and the concentration of compound that reduced plaque formation by 50% (EC50) was interpolated from the experimental data.

[7] = tested on: HSV-1, strain DM2.1 (a resistant isolate); test: Plaque reduction assay in HFF cells; type: cell-based; details: Human alphaherpesvirus 1, HFF
Protocol: as §1, §2

[8] = tested on: HSV-1, strain E-377; test: Plaque reduction assay in HFF cells; type: cell-based; details: Human alphaherpesvirus 1, HFF; for EC50: concentration that reduces viral replication by 50%, various trials, each with its control; for EC90: concentration that reduces viral replication by 90%
Protocol: as §1, §2

[9] = tested on: phage λ; test: Intracapsid DNA transition temperature by ITC and SAXS; design: species or system bacteriophage λ; details: for DNA transition temperature T*: WT DNA phage λ
Text: WT bacteriophage λ cI857, with a genome length of 48.5 kb was produced by thermal induction of lysogenic E. coli strain AE1 derived from the 52773 strain. Two phage λ mutants with shorter genome lengths (78 and 94% of the WT DNA length) were produced using a similar procedure. The receptor was the LamB protein purified from pop 154, a strain of E. coli K12 in which the LamB gene has been transduced from Shigella sonnei 3070. Phage and LamB purification details are described in Evilevitch A., et al., Osmotic pressure inhibition of DNA ejection from phage. Proc. Natl. Acad. Sci. U.S.A. 2003; 100:9292-9295 and Ivanovska I., et al., Internal DNA pressure modifies stability of WT phage. Proc. Natl. Acad. Sci. U.S.A. 2007; 104:9603-9608.
All calorimetric measurements were performed using the MicroCal iTC200 system manufactured by GE Healthcare, Life Sciences. […] J. Mol. Biol. 2010; 395:1079-1087.
Small angle X-ray scattering (SAXS) measurements were carried out at the 12-ID B station at the Advanced Photon Source at Argonne National Laboratory. A 12-KeV X-ray beam was used to illuminate the sample with an overall scattering vector q range from 0.006 to 0.850 Å-1. A total of 120 μl of phage solution (˜5×1013 pfu/ml) was injected into a flow-through glass capillary and the solution was oscillated during the SAXS measurement with a flow rate of 10 μl/s. Forty scans with 1 s X-ray exposure time were collected and averaged for each sample. A buffer solution of the dialysis buffer for phage samples was measured using the same SAXS setup, which was further subtracted as the background. After the background subtraction, the scattered intensity I versus q was plotted and the DNA peak region was truncated from 0.18 Å-1 to 0.33 Å-1. This DNA diffraction peak was fitted with a Gaussian curve plus a linear background using function (1), where q0 is the peak center, w is the peak width, A0 is the peak area, k is the slope of the linear background and c is the offset.
[formula] […] Single-Molecule Fluorescence Measurements of Phage Ejection Ensemble Kinetics.
ITC and SAXS assays were used to determine DNA transition temperatures for WT λ-DNA length phage in MgCl2 Tris-buffer with MgCl2 concentrations varied between 5 and 50 mM, see FIGS. 3A-3C. The intracapsid DNA transition occurs at temperature T*, corresponding to either a discontinuity in the linear dependence of ΔHej on temperature (FIG. 3A) or to an abrupt change in the linear decay of the DNA diffraction peak area versus temperature measured by SAXS (FIG. 3B). DNA transition temperatures as a function of Mg-concentration determined by both techniques are in good agreement with each other and are summarized in FIG. 3C. […] However, the inventors have previously shown that at DNA packing density in phage λ, the screening effect of Mg-ions will become progressively smaller with increasing Mg-concentration due to the counter-ion saturation (Evilevitch A., et al., Effects of salt concentrations and bending energy on the extent of ejection of phage genomes. Biophys. J. 2008; 94:1110-1120). Furthermore, if the Mg ion concentration continues to increase, the counterions are forced into regions on the helices that begin to increase the effective repulsions between packaged DNA strands. […]

[10] = in vitro; details: human
[11] = tested on: DNA; test: DNA condensation, internal experimental observations, dint; type: biochemical
[12] = tested on: HSV-2, strain G; test: Plaque reduction assay in HFF cells; type: cell-based; details: for EC50: reduces viral replication by 50%
[13] = tested on: VZV, strain Ellen; test: Plaque reduction assay in HFF cells; type: cell-based; details: for EC50: Human alphaherpesvirus 3, reduces viral replication by 50%; for EC90: Human alphaherpesvirus 3, reduces viral replication by 90%
Protocol: HCMV strain AD169 and VZV strain Ellen were obtained from the American Type Culture Collection (ATCC, Manassas, Va.).
as §2, with “PBS.” for “PBS. For all assays, plaques were enumerated using a stereomicroscope and the concentration of compound that reduced plaque formation by 50% (EC50) was interpolated from the experimental data.”
However, unlike assays for HSV-1, HSV-2, MCMV and CMV compounds (where the compound is added to cells prior to virus addition), virus particles are not used in infection in assays for VZV where latent virus in the cells is induced to undergo a lytic infection, since the virions are unstable and infected cells. Thus, in the VZV study, bPEI is added to cell solution and virus is induced from within the cell by induction of lytic infectious cycle.

[14] = CC50, parallel to HCMV AD169 assay
[15] = CC50, parallel to HSV-1 DM2.1 assay
[16] = CC50, parallel to HSV-1 E-377 assay, reduces cell viability by 50%
[17] = Human betaherpesvirus 5, AD169, HFF
[18] = CC50, parallel to HSV-2 strain G assay
[19] = CC50, parallel to VZV Ellen assay

## CCCCCCCCCCCCCC[N+](C)(C)C.[Br-] [TTAB, myristyltrimethylammonium bromide]
[1]
  LD50: 3900 mg/kg
[2]
  LD50 as concentration: ~11.6 mM

## Triornithine
[3]
  dint (DNA condensation observed experimentally): 35.6 Å

## Tetraornithine
[3]
  dint (DNA condensation observed experimentally): 32.2 Å

## NCCCN(CCCN)CCCN(CCCCN(CCCN(CCCN)CCCN)CCCN(CCCN)CCCN)CCCN(CCCN)CCCN [DAB-Am-8, Polypropylenimine octaamine Dendrimer, generation 2.0,1,4-diaminobutane core]
[4]
  permeation of cell membranes: permeate cell membranes when complexed with free DNA
[5]; [14]
  CC50: 4.41 µM
[5]; [15]
  CC50: 9.32 µM
[5]; [16]
  CC50: 13 µM
[6]; [17]
  EC50: 0.08 µM
  EC90: > 3.8 µM
[7]
  EC50: 0.1 µM
  EC90: > 3.8 µM
[8]
  EC50: 0.09 µM
  EC90: > 3.8 µM

## [Cl-].[Cl-].[Mg+2] [MgCl2]
[9]; 5 mM MgCl2 Tris-buffer
  DNA transition temperature T*: ~22 °C
[9]; 20 mM MgCl2 Tris-buffer
  DNA transition temperature T*: ~37 °C
[9]; 50 mM MgCl2 Tris-buffer
  DNA transition temperature T*: ~35 °C

## NCCCN(CCCN)CCCCN(CCCN)CCCN [DAB-Am-4, Polypropylenimine tetramine dendrimer, generation 1,1,4-diaminobutane core, generation 1 solution]
[4]
  permeation of cell membranes: permeate cell membranes when complexed with free DNA
[5]; [14]
  CC50: 15.4 µM
[5]; [15]
  CC50: 28.6 µM
[5]; [16]
  CC50: 38.1 µM
[6]; [17]
  EC50: 0.51 µM
  EC90: 3.11 µM
[7]
  EC50: > 19 µM
  EC90: > 19 µM
[8]
  EC50: 0.48 µM
  EC90: 3.49 µM

## Trilysine
[3]
  dint (DNA condensation observed experimentally): 38.9 Å

## CCCCCCCCCCCC[N+](C)(C)C.[Br-] [DTAB, dodecyltrimethylammonium bromide]
[1]
  LD50: 200 to 1000 mg/kg
[2]
  LD50 as concentration: 0.6 to 3.2 mM

## CCCCCCCCCCCCCCCC[N+](C)(C)C.[Br-] [CTAB, hexadecyltrimethylammonium bromide]
[1]
  LD50: 410 mg/kg
[2]
  LD50 as concentration: ~1.1 mM

## Nc1ccn(C[C@@H](CO)OCP(=O)(O)O)c(=O)n1 [Cidofovir, reference compound]
[10]; [15]
  CC50: > 150 µM
[7]
  EC50: 2.64 µM
  EC90: > 150 µM

## N.N.N.N.N.N.[Cl-].[Cl-].[Cl-].[Co+3] [Hexaamminecobalt(III) chloride]
[11]; 2-100 mM
  DNA condensed to (internal experimental observations): 28 Å
[3]
  dint (DNA condensation observed experimentally): 27.8-28.2 Å

## Nc1nc(O)c2ncn(COC(CO)CO)c2n1 [Ganciclovir, reference compound]
[10]; [14]
  CC50: > 150 µM
[6]; [17]
  EC50: 0.35 µM
[6]
  EC50: 0.3 µM

## NCCNC(=O)CCN(CCC(=O)NCCN)CCN(CCC(=O)NCCN)CCC(=O)NCCN [PAMAM Dendrimer G0, PAMAM dendrimer, ethylenediamine core, generation 0.0 solution]
[4]; compound alone, previously shown
  permeation of the cell membrane: permeate the cell membrane
[12]; Human alphaherpesvirus 2, HFF
  EC50: 0.09 µM
[12]; Human alphaherpesvirus 2, HFF, reduces viral replication by 90%
  EC90: > 3 µM
[5]; [14]
  CC50: 1.39 µM
[5]; [16]
  CC50: 3.79 µM
[5]; [18]
  CC50: 4.77 µM
[5]; [19]
  CC50: 1.17 µM
[11]; 0.15-2.50 mM
  dint, internal observations: 32-35.2 Å
[13]
  EC50: > 0.6 µM
  EC90: > 0.6 µM
[6]; [17]
  EC50: > 0.6 µM
  EC90: > 0.6 µM
[8]
  EC50: 0.29 µM
  EC90: > 3 µM
[3]
  dint (DNA condensation observed experimentally): 31 Å

## Tetralysine (KKKK; Synthetic Lys4+)
[3]
  dint (DNA condensation observed experimentally): 34.9 Å

## Nc1nc2c(ncn2COCCO)c(=O)[nH]1 [Acyclovir, reference compound]
[12]; Human alphaherpesvirus 2, HFF
  EC50: 3.69 µM
[12]
  EC50: 2.88 µM
[10]; [15]
  CC50: > 150 µM
[10]; [16]
  CC50: > 150 µM
[10]; [18]
  CC50: > 150 µM
[10]; [19]
  CC50: > 150 µM
[13]
  EC50: 5.14 µM
  EC90: 23.8 µM
[7]
  EC50: > 150 µM
  EC90: > 150 µM

## Cl.Cl.Cl.NCCCCNCCCN [Spermidine trihydrochloride]
[3]
  dint (DNA condensation observed experimentally): 28.8-29.7 Å

## Arg4+: poly-L-arginine peptide (SEQ ID NO: 21), Charge=+4 (RRRR; Synthetic Arg4+)
[11]; 1-2.5 mM
  dint, internal observations: 29.7-30.3 Å
[3]
  dint (DNA condensation observed experimentally): 29.8 Å

## Cl.Cl.Cl.Cl.NCCCNCCCCNCCCN [spermine tetrahydrochloride]
[9]; WT DNA length phage λ, 10 mM MgCl2 Tris-buffer, 1 mM spermine (4+), 20-40° C.
  intracapsid DNA transition (DNA diffraction peak area vs temperature): no abrupt DNA transition is observed
[11]; 0.5-100 mM
  dint, internal experimental observations: 28.2-29.4 Å
[3]
  dint (DNA condensation observed experimentally): 28 Å

Source: US10702572B2, “Methods and compounds to suppress viral genome release and packaging” (Carnegie Mellon University, priority 2015, dated 2020)
